We go through 3 compounds from patent publication US20230295152A1 (SENDA BIOSCIENCES, INC., priority 2019, published 2023).

In brackets after ≈: the same amount, converted by molar mass. Where two headings read alike, the source gives them in different places.

A short description of data set [1]: Liver Microsome Stability Assay, human. The data set is classed as in vitro ADME. The conditions noted are these: human liver microsomes. The procedure: Two separate experiments were performed as follows.
With Cofactors (NADPH): 25 μL of 10 mM NADPH was added to the incubations. The final concentrations of microsomes and NADPH were 0.5 mg/mL and 1 mM, respectively. The final concentration of microsomes was 0.5 mg/mL. The mixture was pre-warmed at 37° C. for 10 minutes. The reaction was started with the addition of 2.5 μL of 100 μM control compound or test compound solutions. Verapamil was used as positive control in this study. The final concentration of test compound or control compound was 1 μM. The incubation solution was incubated in water batch at 37° C. Aliquots of 25 μL were taken from the reaction solution at 0.5, 5, 15, 30 and 60 minutes. The reaction was stopped by the addition of 5 volumes of cold acetonitrile with IS (200 nM caffeine and 100 nM tolbutamide). Samples were centrifuged at 3, 220 g for 40 minutes. Aliquot of 100 μL of the supernatant was mixed with 100 μL of ultra-pure H2O and then used for LC-MS/MS analysis.
Data Analysis: All calculations were carried out using Microsoft Excel. Peak areas were determined from extracted ion chromatograms. The slope value, k, was determined by linear regression of the natural logarithm of the remaining percentage of the parent drug vs. incubation time curve.
The in vitro half-life (in vitro t1/2) was determined from the slope value:
Conversion of the in vitro t1/2 (min) into the in vitro intrinsic clearance (in vitro CLint, in μL/min/mg protein) was done using the following equation (mean of duplicate determinations): […]
The calculations of Scaled-up CLint(mL/min/kg), Predicted CLH (mL/min/kg) and EH were done using the following equation:
Scaled-up CLint=(0.693/t1/2)×(1/(microsomal protein concentration(0.5 mg/mL)))×Scaling Factors;Predicted CLH=(QH×Scaled-up CLint×fub)/(QH+Scaled-up CLint×fub);EH=Predicted CLH/QH
where QH is the hepatic blood flow (mL/min/kg) (Table 32), • fub is the fraction of unbound drug in plasma which is assumed to be 1.
“+++” indicates a Clint value less than 10 mL/min/Kg, […] indicates a Clint between 10 and 20 mL/min/Kg, and “+” indicates a Clint above 20 mL/min/Kg.

Data set [2] can be described thus: Solubility Determination Assay in PBS pH 1.6 and pH 7.4. The class given is physicochemical. The conditions noted are these: PBS buffer, aqueous buffer, kinetic from dmso stock. How it is done: The stock solutions of test compounds and control compound progesterone were prepared in DMSO at the concentrations of 10 mM. 15 μL of stock solution (10 mM) of each sample was placed in order into their proper 96-well rack. 485 μL of PBS pH 1.6 and pH 7.4 were added into each vial of the cap-less Solubility Sample plate. The assay was performed in singlet. One stir stick was added to each vial and then the vial was sealed using a molded PTFE/Silicone plug. […] After completion of the 2 hours, plugs were removed and the stir sticks were removed using a big magnet. The samples from the Solubility Sample plate were transferred into the filter plate. Using the Vacuum Manifold, all the samples were filtered. An aliquot of 5 μL was taken from the filtrate followed by addition of 495 μL of a mixture of H2O and acetonitrile containing internal standard (1:1). A certain proportion of ultrapure water was used to dilute the diluent according to the peak shape. The dilution factor was changed according to the solubility values and the LC-MS signal response.
From the 10 mM DMSO STD plate, 6 μL was transferred into the remaining empty plate, and then 194 μL of DMSO were added to that plate to have a STD concentration of 300 μM. From the 300 μM DMSO STD plate, 5 μL were transferred into the remaining empty plate, and then 495 μL of a mixture of H2O and acetonitrile containing internal standard (1:1) were added to that plate to have a final STD concentration of 3 μM. A certain proportion of ultrapure water was used to dilute the diluent according to the peak shape. The concentrations of the standard samples were changed according to the LC-MS signal response.
The plate was placed into the well plate autosampler. The samples were evaluated by LC-MS/MS analysis.
All calculations were carried out using Microsoft Excel.
The filtrate was analyzed and quantified against a standard of known concentration using LC coupled with mass spectral peak identification and quantitation. Solubility values of the test compound and control compound were calculated as follows: […]
Any value of the compounds that was not within the specified limits was rejected and the experiment was repeated.
“+++” indicates a solubility value equal to or greater than 1 μM, “++” indicates a solubility value between 0.1 and 1 μM, and “+” indicates a solubility value less than 0.1 μM.

Another data set addresses T1, AHR (Homo sapiens, UniProt P35869).
T1 construct: other cell line with a DRE-luciferase reporter stably transfected; endogenous in cells; host or cells: HepG2 AhR-Lucia reporter cells
T1 sequence (P35869 11-848): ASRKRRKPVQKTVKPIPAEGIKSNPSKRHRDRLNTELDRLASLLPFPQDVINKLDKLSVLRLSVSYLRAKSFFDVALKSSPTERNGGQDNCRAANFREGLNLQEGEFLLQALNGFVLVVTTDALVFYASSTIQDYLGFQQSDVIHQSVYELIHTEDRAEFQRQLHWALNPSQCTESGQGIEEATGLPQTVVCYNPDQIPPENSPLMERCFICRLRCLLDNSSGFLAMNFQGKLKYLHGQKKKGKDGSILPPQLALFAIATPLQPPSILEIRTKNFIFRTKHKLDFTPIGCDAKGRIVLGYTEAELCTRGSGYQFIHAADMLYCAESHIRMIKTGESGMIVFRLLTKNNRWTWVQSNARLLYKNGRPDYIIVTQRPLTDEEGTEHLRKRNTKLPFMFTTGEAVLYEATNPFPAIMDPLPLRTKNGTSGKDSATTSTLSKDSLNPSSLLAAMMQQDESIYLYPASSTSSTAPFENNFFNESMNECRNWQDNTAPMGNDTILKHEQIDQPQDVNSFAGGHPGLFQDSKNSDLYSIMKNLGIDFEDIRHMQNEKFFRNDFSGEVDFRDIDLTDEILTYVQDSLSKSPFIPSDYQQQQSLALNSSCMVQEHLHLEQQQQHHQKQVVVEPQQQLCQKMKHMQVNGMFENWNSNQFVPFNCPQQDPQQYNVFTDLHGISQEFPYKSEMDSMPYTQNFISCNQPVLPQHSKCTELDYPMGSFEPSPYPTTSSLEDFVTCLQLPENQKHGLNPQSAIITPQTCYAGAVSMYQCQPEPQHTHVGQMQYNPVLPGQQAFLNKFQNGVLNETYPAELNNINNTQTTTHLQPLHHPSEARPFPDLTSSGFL
The data set is described as follows: DRE-Luciferase Reporter Assay, HepG2 AhR-Lucia reporter cells. The data set is classed as cell-based. The conditions noted are these: with AHR activating ligand at EC50, read-out: HepG2-Luc IC50. An outline of the steps:
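DRE-luciferase reporter cells (e.g. HepG2 AhR-Lucia, 20000 cells) treated with antagonist log dilutions from 100 uM, then an AHR agonist (e.g. TCDD, kynurenine, ITE, FICZ) at its EC50 added after 1 hr. Secreted luciferase measured after 24 or 48 h (QUANTI-Luc); IC50 = concentration halving luciferase activity.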
Background: In a reporter assay the amount or activity of a reporter protein is the signal.

Setting [3] is: PBS pH 1.6, 25° C., read-out: Aq. Solubility at pH = 1.6.
Where [4] appears, read: PBS pH 7.4, 25° C., read-out: Aq. Solubility at pH = 7.4.

With `C[C@@H](CO)n1cnc2c(-c3cccc(F)c3)nc(-c3ccc(OC(F)(F)F)cc3)cc2c1=O` [Compound 49, 8-(3-fluorophenyl)-3-[(1S)-2-hydroxy-1-methyl-ethyl]-6-[4-(trifluoromethoxy)phenyl]pyrido[3,4-d]pyrimidin-4-one], in data set [1], the “Human liver microsome clearance” value is “+++ (“+++” indicates a Clint value less than 10 mL/min/Kg)”. Also, the solubility at 2 h in data set [2] (setting [3]) and in data set [2] (setting [4]) was less than 0.1 µM each time. Also, the IC50 – broadly, the point on the concentration scale where inhibition reaches its midpoint – at AHR was less than 100 nM.

On to `C[C@H](n1cnc2c(-c3cccnc3)nc(-c3ccc(Cl)cc3)cc2c1=O)C(C)(C)O` [Compound 36], for which the “Human liver microsome clearance” value in data set [1] is listed as “+++ (“+++” indicates a Clint value less than 10 mL/min/Kg)”. In addition, the solubility (in general, the dissolved amount per volume that the medium holds) at 2 h is no less than 1 µM in data set [2] (setting [3]) and less than 0.1 µM in data set [2] (setting [4]). Moreover, on AHR, the IC50 is less than 100 nM.

In the case of `Cc1ccc(-c2cc3c(=O)n([C@@H](C)CO)cnc3c(-c3cccc(F)c3)n2)cc1` [Compound 48, 8-(3-fluorophenyl)-3-[(1S)-2-hydroxy-1-methyl-ethyl]-6-(p-tolyl)pyrido[3,4-d]pyrimidin-4-one], the “Human liver microsome clearance” value in data set [1] is on record as “+++ (“+++” indicates a Clint value less than 10 mL/min/Kg)”. The solubility at 2 h was no less than 1 µM in data set [2] (setting [3]) and 0.1 to 1 µM (≈ 0.0389 to 0.389 µg/mL) in data set [2] (setting [4]). Besides, the IC50 at AHR is less than 100 nM.
